Experimental data: patent US8507512B2, “Soluble guanylate cyclase activators” (Merck Sharp & Dohme Corp., priority 2009, dated 2013)

Biological target: T1, sGC α1/β1 heterodimer (Homo sapiens, UniProt Q02108+Q02153)
T1 construct: expressed in transfected cells
T1 sequence (Q02108 1-690 partner): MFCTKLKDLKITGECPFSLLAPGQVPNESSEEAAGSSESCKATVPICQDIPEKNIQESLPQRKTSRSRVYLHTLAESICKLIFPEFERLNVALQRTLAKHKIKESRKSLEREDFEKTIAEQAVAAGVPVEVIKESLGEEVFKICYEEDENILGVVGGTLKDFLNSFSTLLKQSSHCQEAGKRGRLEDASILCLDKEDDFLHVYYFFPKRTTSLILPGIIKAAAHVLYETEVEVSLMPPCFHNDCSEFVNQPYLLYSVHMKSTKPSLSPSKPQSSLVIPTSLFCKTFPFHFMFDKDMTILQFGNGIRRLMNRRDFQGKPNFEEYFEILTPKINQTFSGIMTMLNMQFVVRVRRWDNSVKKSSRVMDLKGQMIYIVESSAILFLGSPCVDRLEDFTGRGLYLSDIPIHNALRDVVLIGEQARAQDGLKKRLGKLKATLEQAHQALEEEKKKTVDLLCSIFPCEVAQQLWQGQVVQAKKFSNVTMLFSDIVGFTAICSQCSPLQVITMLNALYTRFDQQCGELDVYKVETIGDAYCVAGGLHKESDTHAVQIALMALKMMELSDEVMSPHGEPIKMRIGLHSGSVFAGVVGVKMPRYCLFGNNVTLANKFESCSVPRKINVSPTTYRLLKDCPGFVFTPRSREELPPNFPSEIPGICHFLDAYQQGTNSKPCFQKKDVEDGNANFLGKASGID
T1 sequence (Q02153 1-619): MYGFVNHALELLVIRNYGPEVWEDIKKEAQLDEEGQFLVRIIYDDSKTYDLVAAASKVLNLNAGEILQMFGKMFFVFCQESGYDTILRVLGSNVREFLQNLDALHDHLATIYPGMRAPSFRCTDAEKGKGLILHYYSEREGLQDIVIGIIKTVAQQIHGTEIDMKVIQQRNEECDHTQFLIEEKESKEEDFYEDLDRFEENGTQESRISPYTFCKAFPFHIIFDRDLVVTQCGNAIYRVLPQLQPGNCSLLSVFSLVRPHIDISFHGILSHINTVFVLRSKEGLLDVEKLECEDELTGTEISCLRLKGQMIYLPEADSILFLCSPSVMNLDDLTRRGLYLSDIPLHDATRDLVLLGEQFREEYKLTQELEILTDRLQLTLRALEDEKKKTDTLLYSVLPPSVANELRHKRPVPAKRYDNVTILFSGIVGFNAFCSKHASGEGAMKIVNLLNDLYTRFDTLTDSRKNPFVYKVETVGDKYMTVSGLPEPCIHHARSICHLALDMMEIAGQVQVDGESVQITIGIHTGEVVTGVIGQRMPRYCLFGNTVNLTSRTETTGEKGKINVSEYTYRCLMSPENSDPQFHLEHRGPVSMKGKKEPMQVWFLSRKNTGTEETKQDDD
Experiment: Cell-Based sGC Functional Assay (CASA Assay)
Details: CHO-K1/sGC cells, with ODQ incubation (10 μM), 1 hr at 37° C., intracellular cGMP by HTRF; for EC50: read-out: IP (nM) (inflection point); for fold induction: read-out: maximum fold induction over DMSO control
Experimental: Cell-Based sGC Functional Assay (CASA Assay)
Rationale: sGC is a heme-containing enzyme that converts GTP (guanosine 5′-triphosphate) to secondary messenger cGMP. Increases in cGMP levels affect several physiological processes including vasorelaxation through multiple downstream pathways. […] Heme-independent activators (HIAs) preferentially activate sGC containing a ferric heme group, which can be generated upon incubation with 1H-(1,2,4)oxadiazolo(4,3-a) quinoxalin-1-one (ODQ). To determine the effect of sGC activators on enzyme activity, the CASA assay was developed to monitor the generation of cGMP in a cell line that stably expresses the heterodimeric sGC protein.
Methods: A CHO-K1 cell line stably expressing the sGC αl/β1 heterodimer was generated using a standard transfection protocol. CHO-K1 cells were transfected with plasmids pIREShyghsGCα1 and pIRESneo-hsGCβ1 simultaneously using FUGENE reagent. Clones that stably express both subunits were selected with hygromycin and neomycin for ˜2 weeks. Clone #7 was chosen for the assay and was designated CHO-K1/sGC. CHO-K1/sGC cells were maintained in F-K12 medium containing 10% heat-inactivated Fetal Bovine Serum (FBS), 100 μg/mL penicillin/streptomycin, 0.5 mg/mL hygromycin and 0.25 mg/mL G418. On the day of the assay, cells were harvested in EBSS (Earle's balanced salt solution) Assay Buffer (EAB) containing 5 mM MgCl2, 10 mM HEPES (4-(2-hydroxyethyl)piperazine-1-ethanesulfonic acid) and 0.05% BSA (bovine serum albumin) and cell density was adjusted to 2×10^6/mL with EAB. IBMX (3-isobutyl-1-methylxanthin, 0.5 mM) was added to inhibit degradation of cGMP. Compounds were diluted from DMSO stock solutions and added to the assay at a final DMSO concentration of 1%. Cells were incubated with compounds in the presence and absence of 10 μM of 1H-(1,2,4)oxadiazolo(4,3-a) quinoxalin-1-one (ODQ) for 1 hr at 37° C. At the end of the incubation period, the reaction was terminated and the cells were lysed. The level of intracellular cGMP was determined using an HTRF-based assay kit (CisBio, 62GM2PEC), which detects the displacement of a fluorescence labeled cGMP from its specific antibody. The amount of cGMP was plotted against compound concentration in PRISM software and the inflection point (IP) and maximum fold induction over DMSO control were derived from the plot.

Structure (SMILES) | EC50 | fold induction
COC(=O)N1CCC(c2ccc(COc3c(F)cccc3-c3cccc(-n4ncc(C(=O)O)c4C(F)(F)F)n3)cc2)CC1 [Example 5, 1-{6-[3-fluoro-2-({4-[1-(methoxycarbonyl)piperidin-4 yl]benzyl}oxy)phenyl]pyridin-2-yl}-5-(trifluoromethyl)-1H-pyrazole-4-carboxylic acid] | 26.9 nM | 244
O=C(O)c1cnn(-c2cccc(-c3cccc(Cl)c3OCc3ccc(C4CCN(C(=O)C5CC5)CC4)cc3)n2)c1C(F)(F)F [Example 84, 1-(6-(3-chloro-2-((4-(1-(cyclopropylcarbonyl)piperidin-4-yl)benzyl)oxy)phenyl)pyridin-2-yl)-5-(trifluoromethyl)-1H-pyrazole-4-carboxylic acid] | 5.4 nM | 50
O=C(O)c1cnn(-c2cccc(-c3ccccc3OCc3ccc(C4CCN(CC(F)(F)F)CC4)cc3)n2)c1C(F)(F)F [Example 1, 1-[6-[2-[[4-[1-(2,2,2-Trifluoroethyl)-4-piperidinyl]phenyl]methoxy]phenyl]-2-pyridinyl]-5-(trifluoromethyl)-1H-pyrazole-4-carboxylic acid] | 51.5 nM | 281
Cc1cc(C2CCN(CC(F)(F)F)CC2)ccc1COc1ccccc1-c1cccc(-n2ncc(C(=O)O)c2C(F)(F)F)n1 [Example 3, 1-(6-(2-((2-Methyl-4-(1-(2,2,2-trifluoroethyl)piperidin-4-yl)benzyl)oxy)phenyl)pyridin-2-yl)-5-(trifluoromethyl)-1H-pyrazole-4-carboxylic acid] | 10.4 nM | 127
O=C(O)c1cnn(-c2cccc(-c3cccc(C(F)(F)F)c3OCc3ccc(C4CCN(C(=O)C5CC5)CC4)cc3)n2)c1C(F)(F)F [Example 81, 1-(6-(2-((4-(1-(cyclopropylcarbonyl)piperidin-4-yl)benzyl)oxy)-3-(trifluoromethyl)phenyl)pyridin-2-yl)-5-(trifluoromethyl)-1H-pyrazole-4-carboxylic acid] | 2.6 nM | 170

Stronger by EC50, values ahead:

EC50 | fold induction | Structure (SMILES)
2.4 nM | 189 | O=C(O)c1cnn(-c2cccc(-c3cc(F)cc(Cl)c3OCc3ccc(C4CCN(CC(F)(F)F)CC4)cc3)n2)c1C(F)(F)F [Example 2, 1-(6-(3-Chloro-5-fluoro-2-((4-(1-(2,2,2-trifluoroethyl)piperidin-4-yl)benzyl)oxy)phenyl)pyridin-2-yl)-5-(trifluoromethyl)-1H-pyrazole-4-carboxylic acid]
< 0.5 nM | 216 | CCC(=O)N1CCC(c2ccc(COc3c(-c4cccc(-n5ncc(C(=O)O)c5C(F)(F)F)n4)cccc3C(F)(F)F)cc2)CC1 [Example 76, 1-(6-(2-((4-(1-propionylpiperidin-4-yl)benzyl)oxy)-3-(trifluoromethyl)phenyl)pyridin-2-yl)-5-(trifluoromethyl)-1H-pyrazole-4-carboxylic acid]
1.5 nM | 151 | COC(=O)N1CCC(c2ccc(COc3c(-c4cccc(-n5ncc(C(=O)O)c5C(F)(F)F)n4)cccc3C(F)(F)F)cc2)CC1 [Example 77, 1-(6-(2-((4-(1-(methoxycarbonyl)piperidin-4-yl)benzyl)oxy)-3-(trifluoromethyl)phenyl)pyridin-2-yl)-5-(trifluoromethyl)-1H-pyrazole-4-carboxylic acid]
